Results published in patent US20180168208A1 (priority 2014, published 2018).
Counter-ions that a name gives are not always drawn. Like-named read-outs stand apart in the source and are kept apart here.

Legend:
[1] = target: T1R1/T1R3 receptor (Felis catus, UniProt E3UMS2); experiment: cell-based; details: for Max resp % of Ala, +IMP (0.2 mM): in the presence of 0.2 mM IMP, relative to alanine; for Thres (mM), +IMP (0.2 mM): threshold concentration in the presence of 0.2 mM IMP
Text: (§1) HEK293 cells that stably express T1R3 and inducibly express T1R1 were exposed to nucleotide derivatives alone to activate the umami receptor. Activation of the T1R1/T1R3 receptor was detected by a change in intracellular calcium levels using a calcium sensitive fluorescent dye. Cells that express T1R3 but not T1R1 were used as a control. A FLIPR® Tetra or a FlexStation® 3 was used for data capture.
as §1, with “alone or in combination with one or more amino acids and/or one or more nucleotides” for “alone”, “dye and/or a luminescent reporter system.” for “dye.”
as §1, with “transmembrane compounds” for “nucleotide derivatives”, “alone or in combination with one or more amino acids and/or one or more nucleotides” for “alone”
In each experiment, serial dilutions of up to 10 mM of the transmembrane compound were added to the T1R1/T1R3-expressing cells.

[2] = target: T1, cat T1R1/T1R3 receptor (Felis catus, UniProt A0ABI7Z2I4); experiment: cell-based; details: for function as activators of T1R1/T1R3 (in words): in the presence of alanine
T1 sequence (A0ABI7Z2I4 171-420): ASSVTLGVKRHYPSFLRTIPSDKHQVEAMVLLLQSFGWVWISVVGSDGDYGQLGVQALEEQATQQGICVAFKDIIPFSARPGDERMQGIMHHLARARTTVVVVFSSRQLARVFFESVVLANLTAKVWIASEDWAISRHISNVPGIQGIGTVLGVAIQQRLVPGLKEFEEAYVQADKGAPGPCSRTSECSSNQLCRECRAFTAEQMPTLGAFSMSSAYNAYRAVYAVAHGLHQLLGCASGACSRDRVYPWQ
T1 sequence (Q49KI5 25-865 E206Q/N523D/F654L partner): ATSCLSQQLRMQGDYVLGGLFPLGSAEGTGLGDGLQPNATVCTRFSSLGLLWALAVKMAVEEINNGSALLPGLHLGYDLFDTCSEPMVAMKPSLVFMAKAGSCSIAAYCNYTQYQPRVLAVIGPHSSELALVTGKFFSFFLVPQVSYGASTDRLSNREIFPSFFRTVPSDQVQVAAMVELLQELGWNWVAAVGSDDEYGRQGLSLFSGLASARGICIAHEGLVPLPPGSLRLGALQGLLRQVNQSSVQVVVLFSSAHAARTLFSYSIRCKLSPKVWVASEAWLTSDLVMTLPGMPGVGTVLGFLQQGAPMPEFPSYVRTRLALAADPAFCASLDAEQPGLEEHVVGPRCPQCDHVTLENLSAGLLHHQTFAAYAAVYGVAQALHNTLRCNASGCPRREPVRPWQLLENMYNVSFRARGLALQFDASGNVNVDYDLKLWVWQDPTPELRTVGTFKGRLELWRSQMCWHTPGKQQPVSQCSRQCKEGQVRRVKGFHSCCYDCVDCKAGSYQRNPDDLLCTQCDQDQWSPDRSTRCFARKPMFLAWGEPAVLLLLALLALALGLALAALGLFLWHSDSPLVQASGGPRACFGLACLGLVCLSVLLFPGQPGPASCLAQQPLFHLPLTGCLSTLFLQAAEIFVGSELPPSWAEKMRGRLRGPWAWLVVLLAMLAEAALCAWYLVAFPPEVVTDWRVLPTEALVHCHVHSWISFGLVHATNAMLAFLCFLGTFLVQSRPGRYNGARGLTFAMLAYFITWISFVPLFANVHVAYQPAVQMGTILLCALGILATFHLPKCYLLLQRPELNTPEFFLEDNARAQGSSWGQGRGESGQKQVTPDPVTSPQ
Text: as §1, with “alone or in combination with one or more amino acids and/or one or more nucleotides” for “alone”, “dye and/or a luminescent reporter system.” for “dye.”

[3] = threshold amount that results in activation of T1R1/T1R3, 20 mM alanine

SMILES | Threshold [2] | Activity [2] | EC50 [2] | also measured
O=C(O)C1CCCCC1C(=O)Nc1cc(Cl)cc(Cl)c1 (centres unmarked) | – | – | – | EC50 [1]: 0.49 ± 0.01 mM; EC50 ([1]; T1R1/T1R3 EC50 +0.2 mM IMP, +0.2 mM IMP): 0.18 ± 0.01 mM; EC50 ([1]; alone in buffer, read-out: T1R1/T1R3 EC50 alone in buffer): 0.37 ± 0.05 mM
CC(C)CC(NC(=O)c1ccccc1)C(N)=O (racemic) | – | – | – | Max resp % of IMP, +Alanine (20 mM) [1]: 125.5%; Thres (mM), +Alanine (20 mM) [1]: 0.3 mM; EC50 ([1]; EC50 (mM), +Alanine (20 mM) + IMP (0.2 mM), in the presence of 20 mM alanine and 0.2 mM IMP): 0.91 mM; Max resp % of Ala, +IMP (0.2 mM) [1]: 204.5%; Thres (mM), +IMP (0.2 mM) [1]: 0.1 mM
O=C(O)C1CCCCC1C(=O)Nc1cc(Cl)cc(Cl)c1 (centres unmarked) [2-((3,5-dichlorophenyl)carbamoyl)cyclohexanecarboxylic acid] | – | – | – | Max resp % of IMP, +Alanine (20 mM) [1]: 163.5%; Thres (mM), +Alanine (20 mM) [1]: 0.1 mM; Max resp % of Ala, +IMP (0.2 mM) [1]: 157.9%; Thres (mM), +IMP (0.2 mM) [1]: 0.03 mM
Nc1nc2c(ncn2[C@@H]2O[C@H](COP(=O)(O)O)[C@@H](O)[C@H]2O)c(=S)[nH]1 [6-Thiogaunosine-5′-O-monophosphate] | – | – | – | Max resp. (ΔF/F) [2]: 1.3614 ΔF/F; Max. resp. % of IMP [2]: 140.6 % of IMP
Nc1nc2c(ncn2[C@@H]2O[C@H](COP(=O)(O)OP(=O)(O)O)[C@@H](O)[C@H]2O)c(=S)[nH]1 [6-Thioguanosine-5′-O-disphosphate] | 0.03 mM | – | – | –
Nc1nc2c(ncn2[C@@H]2O[C@H](COP(=O)(O)O)[C@@H](O)[C@H]2O)c(=S)[nH]1 [6-Thioguanosine-5′-O-monophosphate] | – | active | – | –
O=P(O)(O)OCC1OC(n2cnc3c(Cl)ncnc32)C(O)C1O (centres unmarked) [6-chloropurineriboside-5′-O-monophosphate] | 0.0005 mM | – | 2 µM | function as activators of T1R1/T1R3 (in words) [2]: activators of the T1R1/T1R3 receptor
Nc1nc2c(ncn2[C@@H]2O[C@H](COP(=O)(O)O)[C@@H](O)[C@H]2O)c(=S)[nH]1 [6-thioguanosine-5′-O-monophosphate] | 0.0002 mM | – | 0.9 µM | function as activators of T1R1/T1R3 (in words) [2]: activators of T1R1/T1R3
Nc1nc2c(nc(Br)n2[C@@H]2O[C@H](COP(=O)(O)O)[C@@H](O)[C@H]2O)c(=O)[nH]1 [8-Bromoguanosine-5′-O-monophosphate] | 1 mM | active | – | Max resp. (ΔF/F) [2]: 0.375 ΔF/F; Max. resp. % of IMP [2]: 30.2 % of IMP
Nc1ncnc2c1nc(Cl)n2[C@@H]1O[C@H](COP(=O)(O)O)C(O)C1O (some centres unmarked) [8-Chloroadenosine-5′-O-monophosphate] | 0.2 mM | – | – | Max resp. (ΔF/F) [2]: 0.79 ΔF/F; Max. resp. % of IMP [2]: 63.6 % of IMP; Activity ([2]; +Alanine (20 mM)): active
Nc1ncnc2c1ncn2C1OC(COP(=O)(O)O)C(OP(=O)(O)O)C1O (centres unmarked) [Adenosine 3′,5′-diphosphate sodium salt, adenosine 3′, 5′ diphosphate sodium salt] | 0.00025 mM | active | – | –
Nc1ncnc2c1ncn2C1OC(COP(=O)(O)OS(=O)(=O)O)C(O)C1O (centres unmarked) [Adenosine 5′-phosphosulfate sodium salt, Adenosine 5′-phosphosulfate] | 0.008 mM | – | – | –
Nc1ncnc2c1ncn2[C@@H]1O[C@H](COP(O)(O)=S)[C@@H](O)[C@H]1O [Adenosine-5′-O-monophosphorothioate] | 0.003 mM | active | 11 µM | –
Nc1nc2c(ncn2[C@@H]2O[C@H](COP(=O)(O)OP(=O)(O)O)[C@@H](O)[C@H]2O)c(=O)[nH]1 [Guanosine 5′-diphosphate sodium salt, Guanosine 5′-diphosphate] | 0.050 mM | active | 200 µM | –
Nc1nc2c(ncn2C2OC(COP(=O)(O)N3CCOCC3)C(O)C2O)c(=O)[nH]1 (centres unmarked) [Guanosine 5′-monophosphomorpholidate 4-morpholine-N,N′-dicyclohexylcarboxamidine salt] | – | – | – | Activity ([2]; +Alanine (20 mM)): active; Max. resp. % of IMP ([2]; maximum response in relation to the response with IMP, 20 mM alanine): 52.9 % of IMP; Max resp. (ΔF/F) ([2]; maximum response of the receptor, 20 mM alanine): 0.5121 ΔF/F; Threshold [2, 3]: 0.325 mM
Nc1nc2c(ncn2[C@@H]2O[C@H](COP(=O)(O)OP(=O)(O)OP(=O)(O)O)[C@@H](O)[C@H]2O)c(=O)[nH]1 [Guanosine 5′-triphosphate] | 0.175 mM | active | 700 µM | Max resp. (ΔF/F) [2]: 1.8075 ΔF/F; Max. resp. % of IMP [2]: 145.5 % of IMP
Nc1nc2c(ncn2[C@@H]2O[C@H](COP(O)(O)=S)[C@@H](O)[C@H]2O)c(=O)[nH]1 [Guanosine-5′-monophosphorothioate] | 0.0025 mM | active | 10 µM | Max resp. (ΔF/F) [2]: 1.29 ΔF/F; Max. resp. % of IMP [2]: 103.8 % of IMP; function as activators of T1R1/T1R3 (in words) [2]: activators of T1R1/T1R3
O=c1[nH]cnc2c1ncn2C1OC(COP(=O)(O)OP(=O)(O)O)C(O)C1O (centres unmarked) [Inosine 5′-diphosphate (IDP) sodium salt, inosine 5′-diphosphate (IDP) sodium salt] | – | active | – | Max resp. (ΔF/F) [2]: 0.3 ΔF/F; Max. resp. % of IMP [2]: 33.3 % of IMP; Threshold [2, 3]: 0.1625 mM
CNc1ncnc2c1ncn2[C@H]1C[C@H](OP(=O)(O)O)[C@@H](COP(=O)(O)O)O1 [MRS 2179 ammonium salt hydrate, 2′-Deoxy-N^6-methyl adenosine 3,5′-diphosphate diammonium salt] | – | active | – | –
O=P(O)(O)OC[C@H]1O[C@@H](n2cnc3c(NC4CCCC4)ncnc32)[C@H](O)[C@@H]1O [N6-Cyclopentyladenosine-5′-O-monophosphate] | 0.013 mM | active | – | –
CNc1ncnc2c1ncn2[C@@H]1O[C@H](COP(=O)(O)O)[C@@H](O)[C@H]1O [N6-Methyladenosine 5′-monophosphate] | 0.020 mM | – | – | Activity ([2]; +Alanine (20 mM)): active
O=P(O)(O)OC[C@H]1O[C@@H](n2cnc3cncnc32)[C@H](O)[C@@H]1O [Purine riboside-5′-O-monophosphate, reference compound] | 0.005 mM | active | – | –
NC(=O)c1ncn(C2OC(COP(=O)(O)O)C(O)C2O)n1 (centres unmarked) [Ribavirin 5′-Monophosphate] | 0.175 mM | active | – | –
O=c1ccn([C@@H]2O[C@H](COP(=O)(O)O)[C@@H](O)[C@H]2O)c(=O)[nH]1 [UMP, uridine monophosphate, reference compound] | – | – | > 30000 µM | –
Nc1ncnc2c1ncn2[C@@H]1O[C@H](COP(=O)(O)O)[C@@H](O)[C@H]1O [adenosine monophosphate (AMP), adenosine monophosphate, reference compound] | – | – | 11 µM | –
Nc1ncnc2c1ncn2[C@@H]1O[C@H](COP(=O)(O)O)[C@@H](O)[C@H]1O [adenosine monophosphate] | 0.003 mM | active | – | –
O=P(O)(O)OP(=O)(O)OP(=O)(O)OC[C@H]1O[C@@H](n2cnc3c(O)ncnc32)[C@H](O)[C@@H]1O [inosine triphosphate (ITP), inosine triphosphate] | – | – | 80 µM | –
O=c1[nH]c(=O)c2ncn([C@@H]3O[C@H](COP(=O)(O)O)[C@@H](O)[C@H]3O)c2[nH]1 [xanthosine monophosphate] | 0.025 mM | active | – | –
